Test results: ChEMBL document CHEMBL1201862, “PubChem BioAssay data set” (2004)
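Method: 48-hour compound exposure of cells in 96-well plates, five concentrations, linear interpolation of endpoints. Here, GI50 denotes the concentration required for 50% inhibition of growth.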 Activity calls are given as the source filed them. Rule as the data show it: active = GI50 up to about 1.1 µM and inactive = higher.

Key:
Assay in all cases: inhibition of tumour cell growth, NCI panel, 48 h
TK-10 = system: TK-10
HOP-92 = system: HOP-92
SK-MEL-28 = system: SK-MEL-28
SR = system: SR
SF-539 = system: SF-539
M14 = system: M14
NCI-H522 = system: NCI-H522
EKVX = system: EKVX
OVCAR-5 = system: OVCAR-5
MDA-N = system: MDA-N
SNB-75 = system: SNB-75
786-0 = system: 786-0
A549 = system: A549
SK-MEL-5 = system: SK-MEL-5
SK-OV-3 = system: SK-OV-3
SF-295 = system: SF-295
UACC-257 = system: UACC-257
HL-60 = system: HL-60
SK-MEL-2 = system: SK-MEL-2
OVCAR-3 = system: OVCAR-3

Measured: GI50

Nc1ccn(C2CCC(CO)O2)c(=O)n1 (configuration not stated)
inactive: TK-10 > 1000 µM | HOP-92 > 100 µM | SK-MEL-28 > 100 µM | SR 367 µM | SF-539 > 100 µM | M14 > 1000 µM | NCI-H522 656 µM | EKVX > 100 µM | OVCAR-5 > 100 µM | MDA-N > 1000 µM | SNB-75 > 100 µM | 786-0 > 1000 µM | A549 > 100 µM | SK-MEL-5 > 100 µM | SK-OV-3 > 100 µM | SF-295 > 100 µM | UACC-257 > 100 µM | HL-60 698 µM | SK-MEL-2 > 100 µM | OVCAR-3 > 100 µM

OC[C@H]1CC(c2nn[nH]n2)[C@H](O)[C@@H]1O (some centres not stated)
inactive: TK-10 > 100 µM | HOP-92 > 100 µM | SK-MEL-28 > 100 µM | SR > 100 µM | SF-539 > 100 µM | M14 > 100 µM | NCI-H522 > 100 µM | OVCAR-5 > 100 µM | MDA-N > 100 µM | SNB-75 > 100 µM | 786-0 > 100 µM | A549 > 100 µM | SK-MEL-5 > 100 µM | SK-OV-3 > 100 µM | SF-295 > 100 µM | HL-60 > 100 µM | OVCAR-3 > 100 µM

CCC1(O)CC(OC2CC(N(C)C)C(OC3CC(O)C(OC4CCC(=O)C(C)O4)C(C)O3)C(C)O2)c2c(cc3c(c2O)C(=O)c2c(O)ccc(O)c2C3=O)C1C(=O)OC (configuration not stated)
active: TK-10 < 0.01 µM | HOP-92 < 0.01 µM | SK-MEL-28 < 0.01 µM | SR < 0.01 µM | SF-539 < 0.01 µM | M14 < 0.01 µM | NCI-H522 < 0.01 µM | EKVX < 0.01 µM | OVCAR-5 0.0123 µM | MDA-N < 0.01 µM | SNB-75 < 0.01 µM | 786-0 < 0.01 µM | A549 < 0.01 µM | SK-MEL-5 < 0.01 µM | SK-OV-3 < 0.01 µM | SF-295 < 0.01 µM | UACC-257 < 0.01 µM | HL-60 < 0.01 µM | SK-MEL-2 < 0.01 µM | OVCAR-3 0.0101 µM

Cc1ncc(CO)c(/C=N/CCCCCC/N=C/c2c(CO)cnc(C)c2[O-])c1[O-].[Mg+2]
inactive: TK-10 > 100 µM | HOP-92 > 44.6 µM | SK-MEL-28 > 100 µM | SR 92.7 µM | SF-539 > 100 µM | M14 > 100 µM | NCI-H522 > 100 µM | EKVX > 100 µM | OVCAR-5 > 100 µM | MDA-N > 100 µM | SNB-75 99.5 µM | 786-0 > 100 µM | A549 > 100 µM | SK-MEL-5 > 100 µM | SK-OV-3 > 100 µM | SF-295 > 100 µM | UACC-257 > 100 µM | HL-60 > 100 µM | SK-MEL-2 > 100 µM | OVCAR-3 > 100 µM

CCOC(=O)C(=O)NNc1nc2c(s1)C(=O)c1ccccc1C2=O
inactive: TK-10 24.5 µM | HOP-92 10.5 µM | SK-MEL-28 3.06 µM | SF-539 2.46 µM | M14 2.08 µM | NCI-H522 4.49 µM | EKVX 7.46 µM | OVCAR-5 9.35 µM | MDA-N 1.8 µM | SNB-75 3.65 µM | 786-0 10.6 µM | A549 6.07 µM | SK-MEL-5 1.86 µM | SK-OV-3 20 µM | SF-295 5.01 µM | UACC-257 1.71 µM | HL-60 1.47 µM | SK-MEL-2 3.95 µM | OVCAR-3 1.88 µM
active: SR 0.465 µM

CC(C)C[C@H](NC(=O)[C@H](Cc1ccc(F)cc1)NC(=O)c1ccccn1)B(O)O
active: TK-10 < 0.01 µM | HOP-92 < 0.01 µM | SK-MEL-28 < 0.01 µM | SR < 0.01 µM | SF-539 < 0.01 µM | M14 < 0.01 µM | NCI-H522 < 0.01 µM | EKVX < 0.01 µM | OVCAR-5 < 0.01 µM | MDA-N < 0.01 µM | SNB-75 < 0.01 µM | 786-0 < 0.01 µM | A549 < 0.01 µM | SK-MEL-5 < 0.01 µM | SK-OV-3 < 0.0148 µM | SF-295 < 0.01 µM | UACC-257 < 0.01 µM | HL-60 < 0.01 µM | SK-MEL-2 < 0.01 µM | OVCAR-3 < 0.01 µM

c1ccc2cc(NCNc3ccc4ccccc4c3)ccc2c1
inactive: TK-10 21.7 µM | HOP-92 1.27 µM | SK-MEL-28 34.8 µM | SR 2.42 µM | SF-539 29.3 µM | M14 15.5 µM | NCI-H522 17.6 µM | EKVX 14.6 µM | OVCAR-5 21.3 µM | MDA-N 4.33 µM | SNB-75 13.2 µM | 786-0 17.3 µM | A549 18.3 µM | SK-MEL-5 6.25 µM | SK-OV-3 33.6 µM | SF-295 15.2 µM | UACC-257 8.73 µM | SK-MEL-2 8.17 µM | OVCAR-3 5.69 µM
active: HL-60 0.893 µM

Cc1ccc(-c2n[nH]c(=O)n2NC(=O)c2ccccc2C(=O)O)cc1
inactive: TK-10 > 100 µM | HOP-92 > 100 µM | SK-MEL-28 > 100 µM | SR > 100 µM | SF-539 > 100 µM | M14 > 100 µM | NCI-H522 > 100 µM | MDA-N > 100 µM | SNB-75 > 100 µM | 786-0 > 100 µM | A549 > 100 µM | SK-MEL-5 > 100 µM | SF-295 > 100 µM | UACC-257 > 100 µM | HL-60 > 100 µM | SK-MEL-2 > 100 µM | OVCAR-3 > 100 µM

C[C@]12CC[C@H](O)C[C@@H]1CC[C@@H]1[C@@H]2CC[C@]2(C)[C@@H](c3cc(C(F)(F)F)[nH]n3)CC[C@@H]12
inactive: TK-10 6.07 µM | HOP-92 2.74 µM | SK-MEL-28 13.1 µM | SR 3.87 µM | SF-539 7.36 µM | M14 9.1 µM | NCI-H522 > 22.5 µM | EKVX 10.8 µM | OVCAR-5 10.5 µM | MDA-N 10.8 µM | SNB-75 11.6 µM | 786-0 4.35 µM | A549 4.8 µM | SK-MEL-5 6.82 µM | SK-OV-3 13.8 µM | SF-295 4.23 µM | UACC-257 5.69 µM | SK-MEL-2 16.2 µM | OVCAR-3 10.1 µM
active: HL-60 0.908 µM

CC1=NN(C(=O)CC(=O)Nc2ccc(C)cc2)C(=O)C1/N=N/c1ccc(C(=O)O)cc1 (configuration not stated)
inactive: TK-10 > 100 µM | HOP-92 > 100 µM | SK-MEL-28 > 100 µM | SR 78.5 µM | SF-539 > 100 µM | M14 > 100 µM | NCI-H522 > 100 µM | EKVX > 100 µM | OVCAR-5 > 100 µM | MDA-N > 100 µM | SNB-75 > 100 µM | 786-0 > 100 µM | A549 > 100 µM | SK-MEL-5 > 100 µM | SF-295 > 100 µM | UACC-257 > 100 µM | HL-60 > 100 µM | SK-MEL-2 > 100 µM | OVCAR-3 > 100 µM

O=C1NC(=O)c2ccccc2/C1=C/c1ccc2c(c1)OCO2
inactive: TK-10 55.7 µM | HOP-92 27.1 µM | SR 36 µM | SF-539 21.5 µM | M14 24 µM | NCI-H522 31.3 µM | EKVX 51.1 µM | OVCAR-5 29.2 µM | MDA-N 26 µM | SNB-75 28.1 µM | 786-0 8.02 µM | A549 34 µM | SK-MEL-5 15.1 µM | SK-OV-3 27.3 µM | SF-295 24.5 µM | UACC-257 21.4 µM | HL-60 2.72 µM | SK-MEL-2 24.6 µM | OVCAR-3 5.37 µM

COC(=O)NC(C(F)(F)F)(C(F)(F)F)P1(=O)OCCCO1
inactive: TK-10 37.4 µM | HOP-92 35.8 µM | SK-MEL-28 35.6 µM | SR 20.7 µM | SF-539 21.1 µM | M14 24.8 µM | NCI-H522 14.5 µM | OVCAR-5 26.1 µM | MDA-N 23.2 µM | SNB-75 47.6 µM | 786-0 36.9 µM | A549 38.5 µM | SK-MEL-5 17.6 µM | SK-OV-3 18.9 µM | SF-295 23.7 µM | HL-60 16.6 µM | OVCAR-3 28.3 µM

CCC(=O)Nc1ccc(N2C(=O)C(Cl)C2c2ccc(SC)cc2)cc1 (configuration not stated)
inactive: HOP-92 > 100 µM | SK-MEL-28 > 100 µM | SR 40.6 µM | SF-539 26.9 µM | M14 > 100 µM | NCI-H522 41 µM | EKVX 52.7 µM | OVCAR-5 97.5 µM | MDA-N > 100 µM | SNB-75 > 100 µM | 786-0 57.3 µM | A549 > 100 µM | SK-MEL-5 20.7 µM | SK-OV-3 > 100 µM | SF-295 > 100 µM | UACC-257 44.9 µM | HL-60 78.3 µM | SK-MEL-2 65 µM | OVCAR-3 81.5 µM

COc1ccccc1/C=C1\Sc2scc(-c3ccc(O)c(O)c3)[n+]2C1=O
inactive: TK-10 28.5 µM | HOP-92 19.7 µM | SK-MEL-28 18.2 µM | SR 6.67 µM | SF-539 20.7 µM | M14 15.1 µM | NCI-H522 8.99 µM | EKVX 46.6 µM | OVCAR-5 26.5 µM | MDA-N 23.9 µM | 786-0 15.2 µM | A549 45.8 µM | SK-MEL-5 18.1 µM | SK-OV-3 21.4 µM | SF-295 24.9 µM | UACC-257 26.3 µM | HL-60 2.28 µM | SK-MEL-2 17.2 µM | OVCAR-3 16.6 µM
